pIC50, pKd: −log10 of the molar value. Activity calls are given as the source filed them. The rule behind the calls is not given here.
How the values were obtained:
K562 [1] = assay: Induction of cell cycle arrest in human K562 cells assessed as accumulation at G2/M phase at 2XIC50 measured after 48 hrs by propidium iodide/RNase staining based flow cytometry; type: functional
K562 [2] = assay: Induction of apoptosis in human K562 cells assessed as necrotic cells at 3.2 uM measured after 48 hrs by Annexin V-APC/PI staining based flow cytometry assay (reference value: 3.9%); type: functional
K562 [3] = assay: Induction of apoptosis in human K562 cells assessed as late apoptotic cells at 3.2 uM measured after 24 hrs by Annexin V-APC/PI staining based flow cytometry assay (reference value: […]); type: functional
K562 [4] = assay: Antiproliferative activity against human K562 cells assessed as inhibition of cell proliferation measured after 72 hrs by MTT assay; type: functional, cell-based; conditions: K562, 72 h
[5] = Selectivity index, ratio of IC50 for human TERT-RPE1 cells to IC50 for human NCI-H460 cells; type: toxicity; conditions: TERT-RPE1 cells and NCI-H460 cells, read-out: Ratio IC50
K562 [6] = assay: Induction of apoptosis in human K562 cells assessed as early apoptotic cells at 3.2 uM measured after 24 hrs by Annexin V-APC/PI staining based flow cytometry assay (reference value: 3.4%); type: functional
[7] = Selectivity index, ratio of IC50 for human TERT-RPE1 cells to IC50 for human K562 cells; type: toxicity; conditions: TERT-RPE1 cells and K562 cells, read-out: Ratio IC50
[8] = Drug uptake in P-gp-positive/doxorubicin-resistant human K562/4 cells; type: ADME
[9] = Drug uptake in mouse NIH3T3 cells assessed as compound localization in nucleus at 1 uM measured after 15 mins by laser scanning microscope; type: ADME, subcellular; conditions: nih3t3, 0.25 h
[10] = Resistance index, ratio of IC50 for human P-gp-positive/Doxorubicin-resistant K562/4 cells to IC50 for human K562 cells; type: functional
Calf thymus DNA [11] = assay: Binding affinity to calf thymus double stranded DNA at 10 uM measured after 5 mins by flourescence spectroscopy method; conditions: Bos taurus
[12] = Selectivity index, ratio of IC50 for human TERT-RPE1 cells to IC50 for human HCT-116 cells; type: toxicity; conditions: TERT-RPE1 cells and HCT-116 cells, read-out: Ratio IC50
CAPAN-1 = assay: Antiproliferative activity against human CAPAN-1 cells assessed as inhibition of cell proliferation measured after 72 hrs by MTT assay; type: functional, cell-based; conditions: CAPAN-1, 72 h
[13] = Selectivity index, ratio of IC50 for human TERT-RPE1 cells to IC50 for human HL-60 cells; type: toxicity; conditions: TERT-RPE1 cells and HL-60 cells, read-out: Ratio IC50
K562 [14] = assay: Induction of apoptosis in human K562 cells assessed as late apoptotic cells at 3.2 uM measured after 48 hrs by Annexin V-APC/PI staining based flow cytometry assay (reference value: […]); type: functional
NCI-H460 = assay: Antiproliferative activity against human NCI-H460 cells assessed as inhibition of cell proliferation measured after 72 hrs by MTT assay; type: functional, cell-based; conditions: NCI-H460, 72 h
K562 [15] = assay: Induction of cell cycle arrest in human K562 cells assessed as accumulation at subG1 phase at 2XIC50 measured after 24 hrs by propidium iodide/RNase staining based flow cytometry; type: functional
[16] = Selectivity index, ratio of IC50 for human TERT-RPE1 cells to IC50 for human CAPAN-1 cells
[17] = Drug uptake in mouse NIH3T3 cells assessed as compound localization in mitochondria at 1 uM measured after 15 mins by Mitotracker Green FM dye based laser scanning microscope; type: ADME; conditions: nih3t3, 0.25 h
Calf thymus DNA [18] = assay: Binding affinity to calf thymus DNA assessed as stoichiometry ratio of compound-DNA complex formation by scatchard plot analysis; conditions: Bos taurus
K562 [19] = assay: Induction of apoptosis in human K562 cells assessed as viable cells at 3.2 uM measured after 24 hrs by Annexin V-APC/PI staining based flow cytometry assay (reference value: 85.9%); type: functional; conditions: read-out: Activity
[20] = Drug uptake in mouse NIH3T3 cells assessed as compound localization in cytoplasm at 1 uM measured after 15 mins by laser scanning microscope; type: ADME, subcellular; conditions: nih3t3, 0.25 h
[21] = Antiproliferative activity against P-gp-positive/doxorubicin-resistant human K562/4 cells assessed as inhibition of cell proliferation measured after 72 hrs by MTT assay; type: functional; conditions: K562/4, 72 h
Calf thymus DNA [22] = assay: Binding affinity to calf thymus DNA assessed as dissociation constant by scatchard plot analysis; parameters: species or system Bos taurus
HL-60 = assay: Antiproliferative activity against human HL-60 cells assessed as inhibition of cell proliferation measured after 72 hrs by MTT assay; type: functional, cell-based; conditions: HL-60, 72 h
Calf thymus DNA [23] = assay: Binding affinity to calf thymus DNA assessed as binding constant by scatchard plot analysis; conditions: Bos taurus
Calf thymus DNA [24] = assay: Binding affinity to calf thymus DNA assessed as DNA intercalation by measuring decrease of negative DNA band at 245 nm at 50 uM by circular dichroism spectral analysis; type: tissue-based; conditions: Bos taurus
K562 [25] = assay: Induction of apoptosis in human K562 cells assessed as viable cells at 3.2 uM measured after 48 hrs by Annexin V-APC/PI staining based flow cytometry assay (reference value: 85.9%); type: functional; conditions: read-out: Activity
K562 [26] = assay: Induction of apoptosis in human K562 cells assessed as necrotic cells at 3.2 uM measured after 24 hrs by Annexin V-APC/PI staining based flow cytometry assay (reference value: 3.9%); type: functional
K562 [27] = assay: Induction of apoptosis in human K562 cells assessed as early apoptotic cells at 3.2 uM measured after 48 hrs by Annexin V-APC/PI staining based flow cytometry assay (reference value: 3.4%); type: functional
HCT-116 [28] = assay: Antiproliferative activity against human HCT-116 cells assessed as inhibition of cell proliferation measured after 72 hrs by MTT assay; type: functional, cell-based; conditions: HCT-116, 72 h
HCT-116 [29] = assay: Antiproliferative activity against human HCT-116 cells with inactivated p53 gene assessed as inhibition of cell proliferation measured after 72 hrs by MTT assay; type: functional, cell-based; conditions: HCT-116, 72 h
[30] = Drug uptake in human K562i/S9 cells harboring exogenously expressed MDR1/Pgp; type: ADME, cell-based
TERT-RPE1 = assay: Cytotoxicity against human TERT-RPE1 cells assessed as inhibition of cell proliferation measured after 72 hrs by MTT assay; type: cell-based; conditions: RPE-1, 72 h
[31] = molecular target: T1, DNA topoisomerase 1 (Homo sapiens) (UniProt P11387); assay: Inhibition of human topoisomerase 1-mediated relaxation of supercoiled plasmid using pBR322 plasmid as substrate at 40 uM measured after 30 mins by ethidium bromide dye based agarose gel electrophoresis method
T1 sequence (whole entry): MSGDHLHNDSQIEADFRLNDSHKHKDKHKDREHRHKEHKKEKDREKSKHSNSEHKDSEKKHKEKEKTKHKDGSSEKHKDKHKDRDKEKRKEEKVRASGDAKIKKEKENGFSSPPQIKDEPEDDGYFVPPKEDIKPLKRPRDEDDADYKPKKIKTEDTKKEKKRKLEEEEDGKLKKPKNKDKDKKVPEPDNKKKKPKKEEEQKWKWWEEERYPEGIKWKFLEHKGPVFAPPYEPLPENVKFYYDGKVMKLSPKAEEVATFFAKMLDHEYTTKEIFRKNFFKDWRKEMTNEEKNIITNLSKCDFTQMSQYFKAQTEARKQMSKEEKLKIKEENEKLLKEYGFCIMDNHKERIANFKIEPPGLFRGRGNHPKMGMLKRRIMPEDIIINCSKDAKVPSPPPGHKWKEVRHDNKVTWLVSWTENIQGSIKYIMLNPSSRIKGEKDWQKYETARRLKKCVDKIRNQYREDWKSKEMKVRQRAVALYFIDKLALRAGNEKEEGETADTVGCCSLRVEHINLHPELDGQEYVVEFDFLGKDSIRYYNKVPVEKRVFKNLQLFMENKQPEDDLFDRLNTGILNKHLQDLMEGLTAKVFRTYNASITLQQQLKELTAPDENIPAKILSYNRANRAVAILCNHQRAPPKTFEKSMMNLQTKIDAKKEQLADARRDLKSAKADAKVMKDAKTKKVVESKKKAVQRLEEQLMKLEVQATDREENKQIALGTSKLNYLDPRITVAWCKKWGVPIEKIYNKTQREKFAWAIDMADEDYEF

K562 [32] = assay: Induction of cell cycle arrest in human K562 cells assessed as accumulation at G2/M phase at 2XIC50 measured after 24 hrs by propidium iodide/RNase staining based flow cytometry; type: functional
K562 [33] = assay: Induction of oxidative stress in human K562 cells assessed as increase in intracellular ROS generation at 3.2 uM measured after 40 mins by Deep Red dye based flow cytometry method; type: functional, cell-based
[34] = Toxicity in ip dosed BDF1 mouse xenografted with mouse P388 cells administered qd for 5 days; type: organism-based; conditions: in vivo, time 5 day
K562 [35] = assay: Induction of apoptosis in human K562 cells assessed as early apoptotic cells at 1.6 uM measured after 24 hrs by Annexin V-APC/PI staining based flow cytometry assay (reference value: 3.4%); type: functional
K562 [36] = assay: Induction of apoptosis in human K562 cells assessed as necrotic cells at 1.6 uM measured after 48 hrs by Annexin V-APC/PI staining based flow cytometry assay (reference value: 3.9%); type: functional
K562 [37] = assay: Induction of apoptosis in human K562 cells assessed as necrotic cells at 1.6 uM measured after 24 hrs by Annexin V-APC/PI staining based flow cytometry assay (reference value: 3.9%); type: functional
K562 [38] = assay: Induction of oxidative stress in human K562 cells assessed as increase in intracellular ROS generation at 1.6 uM measured after 40 mins by Deep Red dye based flow cytometry method; type: functional, cell-based
K562 [39] = assay: Induction of apoptosis in human K562 cells assessed as viable cells at 1.6 uM measured after 48 hrs by Annexin V-APC/PI staining based flow cytometry assay (reference value: 85.9%); type: functional; conditions: read-out: Activity
K562 [40] = assay: Induction of apoptosis in human K562 cells assessed as early apoptotic cells at 1.6 uM measured after 48 hrs by Annexin V-APC/PI staining based flow cytometry assay (reference value: 3.4%); type: functional
K562 [41] = assay: Induction of apoptosis in human K562 cells assessed as late apoptotic cells at 1.6 uM measured after 48 hrs by Annexin V-APC/PI staining based flow cytometry assay (reference value: […]); type: functional
K562 [42] = assay: Induction of apoptosis in human K562 cells assessed as late apoptotic cells at 1.6 uM measured after 24 hrs by Annexin V-APC/PI staining based flow cytometry assay (reference value: […]); type: functional
K562 [43] = assay: Induction of apoptosis in human K562 cells assessed as viable cells at 1.6 uM measured after 24 hrs by Annexin V-APC/PI staining based flow cytometry assay (reference value: 85.9%); type: functional; conditions: read-out: Activity

Structure (SMILES)	Activity (K562 [1])	pIC50 (K562 [4])	selectivity ratio [5]	selectivity ratio [7]	Drug uptake [8]	Ratio IC50 [10]	Activity (Calf thymus DNA [11])	selectivity ratio [12]	pIC50 (CAPAN-1)	selectivity ratio [13]	pIC50 (NCI-H460)	Ratio IC50 [16]	Ratio (Calf thymus DNA [18])	pIC50 [21]	pKd (Calf thymus DNA [22])	pIC50 (HL-60)	Kb (Calf thymus DNA [23])	Activity (Calf thymus DNA [24])	pIC50 (HCT-116 [28])	pIC50 (HCT-116 [29])	also measured
N[C@H]1CCN(C(=O)c2csc3c(O)c4c(c(O)c23)C(=O)c2ccccc2C4=O)C1	Active	5.80	2	2	Active	2.7	Active	2	5.68	2	5.68	2	2	5.37	5.30	5.26	2 10^5/M	Active	5.74	5.66	Activity (K562 [2]): 35.1%; Activity (K562 [3]): 6.7%; Activity (K562 [6]): 0.8%; Drug uptake [9]: Active; Activity (K562 [14]): 9.9%; Activity (K562 [15]): Active; Drug uptake [17]: Active; viability at 3.2 µM (K562 [19]): 71.2%; Drug uptake [20]: Active; viability at 3.2 µM (K562 [25]): 54.1%; Activity (K562 [26]): 21.3%; Activity (K562 [27]): 0.9%; Drug uptake [30]: Active; pIC50 (TERT-RPE1): 4.89; inhibition [31]: Active; Activity (K562 [32]): Active; Activity (K562 [33]): Active
N[C@H]1CCN(C(=O)c2coc3c(O)c4c(c(O)c23)C(=O)c2ccccc2C4=O)C1	Active	6.05	9	9	Active	1.5	Active	9	6.52	9	6.40	9	2	5.85	4.96	6.30	0.9 10^5/M	Active	5.92	5.89	LD50 at 120 h [34]: 52 mg/kg; Activity (K562 [35]): 1.3%; Activity (K562 [36]): 38.6%; Activity (K562 [37]): 20.6%; Activity (K562 [38]): Active; viability at 1.6 µM (K562 [39]): 51.9%; Activity (K562 [40]): 0.5%; Activity (K562 [41]): 9.1%; Activity (K562 [42]): 8.1%; viability at 1.6 µM (K562 [43]): 70%; Drug uptake [30]: Active; pIC50 (TERT-RPE1): 4.95; inhibition [31]: Active
